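Briefly, cells in 96-well plates were exposed to five compound concentrations for 48 h, and endpoints were estimated by linear interpolation. At the GI50, growth is halved. TGI: concentration producing complete growth inhibition.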
How the values were obtained:
Assay in all cases: NCI tumour cell line growth inhibition, 48 h
SK-MEL-5 melanoma = test system: SK-MEL-5 melanoma
MDA-MB-435 = test system: MDA-MB-435
MDA-MB-468 breast = test system: MDA-MB-468 breast
LOX IMVI melanoma = test system: LOX IMVI melanoma
MOLT-4 leukemia = test system: MOLT-4 leukemia
UACC-257 melanoma = test system: UACC-257 melanoma
A549 NSCLC = test system: A549 NSCLC
SNB-19 CNS = test system: SNB-19 CNS
OVCAR-4 ovarian = test system: OVCAR-4 ovarian
NCI-H460 lung = test system: NCI-H460 lung
MALME-3M melanoma = test system: MALME-3M melanoma
OVCAR-5 ovarian = test system: OVCAR-5 ovarian
CAKI-1 renal = test system: CAKI-1 renal
RXF 393 renal = test system: RXF 393 renal
M14 melanoma = test system: M14 melanoma
ACHN renal = test system: ACHN renal
SW-620 colon = test system: SW-620 colon
U251 CNS = test system: U251 CNS
SN12C renal = test system: SN12C renal
NCI-H522 lung = test system: NCI-H522 lung
HT29 colon = test system: HT29 colon
TK-10 renal = test system: TK-10 renal
MCF7 breast = test system: MCF7 breast
COLO 205 colon = test system: COLO 205 colon
HCT-15 colon = test system: HCT-15 colon
OVCAR-8 ovarian = test system: OVCAR-8 ovarian
SK-OV-3 ovarian = test system: SK-OV-3 ovarian
HS 578T breast = test system: HS 578T breast
KM12 colon = test system: KM12 colon

Question: How did the GI50 (SK-MEL-5 melanoma) turn out when CC1=C(COCCOC(=O)c2ccc(S(=O)(=O)F)cc2)C2=C(C)C3(CC3)[C@@](C)(O)C(=O)C2=C1 was run?
Answer: 20 µM

Question: And the TGI (SK-MEL-5 melanoma)?
Answer: 39.5 µM

Question: What about the GI50 (MDA-MB-435) of the same molecule?
Answer: 22.2 µM

Question: And the TGI (MDA-MB-435)?
Answer: 52.2 µM

Question: What about the GI50 (MDA-MB-468 breast) of the same molecule?
Answer: 18.7 µM

Question: And the TGI (MDA-MB-468 breast)?
Answer: 40.1 µM

Question: And the GI50 (LOX IMVI melanoma)?
Answer: 17.8 µM

Question: And the TGI (LOX IMVI melanoma)?
Answer: 34.6 µM

Question: And the GI50 (MOLT-4 leukemia)?
Answer: 26.3 µM

Question: And the TGI (MOLT-4 leukemia)?
Answer: 72.3 µM

Question: And the GI50 (UACC-257 melanoma)?
Answer: 17.7 µM

Question: And the TGI (UACC-257 melanoma)?
Answer: 38.3 µM

Question: What about the GI50 (A549 NSCLC) of the same molecule?
Answer: 25.9 µM

Question: What about the TGI (A549 NSCLC) of the same molecule?
Answer: 80.8 µM

Question: And the GI50 (SNB-19 CNS)?
Answer: 17 µM

Question: And the TGI (SNB-19 CNS)?
Answer: 32.5 µM

Question: What about the GI50 (OVCAR-4 ovarian) of the same molecule?
Answer: 20.1 µM

Question: And the TGI (OVCAR-4 ovarian)?
Answer: 48.4 µM

Question: And the GI50 (NCI-H460 lung)?
Answer: 21.6 µM

Question: What about the TGI (NCI-H460 lung) of the same molecule?
Answer: 45.8 µM

Question: What about the GI50 (MALME-3M melanoma) of the same molecule?
Answer: 16 µM

Question: What about the TGI (MALME-3M melanoma) of the same molecule?
Answer: 30.8 µM

Question: What about the GI50 (OVCAR-5 ovarian) of the same molecule?
Answer: 18.1 µM

Question: And the TGI (OVCAR-5 ovarian)?
Answer: 36.6 µM

Question: And the GI50 (CAKI-1 renal)?
Answer: 16 µM

Question: And the TGI (CAKI-1 renal)?
Answer: 32.5 µM

Question: What about the GI50 (RXF 393 renal) of the same molecule?
Answer: 17.5 µM

Question: What about the TGI (RXF 393 renal) of the same molecule?
Answer: 34.8 µM

Question: What about the GI50 (M14 melanoma) of the same molecule?
Answer: 18.9 µM

Question: What about the TGI (M14 melanoma) of the same molecule?
Answer: 36.9 µM

Question: And the GI50 (ACHN renal)?
Answer: 21.7 µM

Question: What about the TGI (ACHN renal) of the same molecule?
Answer: 49.9 µM

Question: And the GI50 (SW-620 colon)?
Answer: 17.5 µM

Question: And the TGI (SW-620 colon)?
Answer: 33.9 µM

Question: And the GI50 (U251 CNS)?
Answer: 18.1 µM

Question: And the TGI (U251 CNS)?
Answer: 37.3 µM

Question: What about the GI50 (SN12C renal) of the same molecule?
Answer: 16.6 µM

Question: And the TGI (SN12C renal)?
Answer: 30.4 µM

Question: And the GI50 (NCI-H522 lung)?
Answer: 16 µM

Question: What about the TGI (NCI-H522 lung) of the same molecule?
Answer: 30.9 µM

Question: And the GI50 (HT29 colon)?
Answer: 18.4 µM

Question: And the TGI (HT29 colon)?
Answer: 35.9 µM

Question: And the GI50 (TK-10 renal)?
Answer: 19.6 µM

Question: And the TGI (TK-10 renal)?
Answer: 45.3 µM

Question: And the GI50 (MCF7 breast)?
Answer: 27 µM

Question: What about the TGI (MCF7 breast) of the same molecule?
Answer: 91.2 µM

Question: What about the GI50 (COLO 205 colon) of the same molecule?
Answer: 19.6 µM

Question: And the TGI (COLO 205 colon)?
Answer: 37.2 µM

Question: What about the GI50 (HCT-15 colon) of the same molecule?
Answer: 20.8 µM

Question: What about the TGI (HCT-15 colon) of the same molecule?
Answer: 43.1 µM

Question: And the GI50 (OVCAR-8 ovarian)?
Answer: 18.9 µM

Question: What about the TGI (OVCAR-8 ovarian) of the same molecule?
Answer: 40.1 µM

Question: And the GI50 (SK-OV-3 ovarian)?
Answer: 18.6 µM

Question: What about the TGI (SK-OV-3 ovarian) of the same molecule?
Answer: 39.5 µM

Question: What about the GI50 (HS 578T breast) of the same molecule?
Answer: 25.4 µM

Question: And the TGI (HS 578T breast)?
Answer: 99.6 µM

Question: What about the GI50 (KM12 colon) of the same molecule?
Answer: 23.6 µM

Question: And the TGI (KM12 colon)?
Answer: 53.8 µM

From PubChem BioAssay (NCI)
